For 17 compounds, IC50, Emax and EC50 results are on record in US20100029710A1, “COMPOUNDS HAVING BOTH ANGIOTENSIN II RECEPTOR ANTAGONISM AND PPARy ACTIVATING ACTIVITIES” (Pfizer Products Inc., priority 2006, published 2010).

As a reminder, the IC50 is the midpoint of a concentration-inhibition curve. As usually defined, the EC50 is the concentration needed to bring the measured effect to its halfway point. Low readings indicate higher potency in that assay, high ones lower potency in that assay.

In assay [1] the target is T1, Human recombinant AT1 receptor (Homo sapiens, UniProt P30556).
T1 construct: purchased
T1 sequence (P30556 1-359): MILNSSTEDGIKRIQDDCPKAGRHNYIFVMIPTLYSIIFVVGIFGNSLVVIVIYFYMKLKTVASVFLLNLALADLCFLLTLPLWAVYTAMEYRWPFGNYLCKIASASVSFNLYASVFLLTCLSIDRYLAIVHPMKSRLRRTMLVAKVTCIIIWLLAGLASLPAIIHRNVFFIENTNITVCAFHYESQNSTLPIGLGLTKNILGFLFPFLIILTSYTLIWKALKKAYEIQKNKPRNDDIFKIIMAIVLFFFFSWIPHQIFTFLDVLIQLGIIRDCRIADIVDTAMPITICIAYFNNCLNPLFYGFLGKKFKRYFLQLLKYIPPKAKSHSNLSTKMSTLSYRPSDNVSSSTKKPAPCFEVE
The assay can be described thus: AT1 receptor radioligand binding (flashplate). The conditions noted are these: 125I Sar1,Ile8-Angiotensin II radioligand. The protocol: Angiotensin II receptor antagonist activity may be determined using commercially available flashplates coated with the AT1 or AT2 receptor which provide a rapid and high throughput means to evaluate compounds compared to traditional filtration based assays (Regina M. Van Der Hee et al., Journal of Biomolecular Screening 10(2); 2005; 118-126).
AT1 receptor affinity was determined in a radioligand binding format using commercially available flashplate technology. Human recombinant AT1 receptor were coated on the wells of a 96 well flashplate and test compounds were diluted and added to wells at a final concentration range of 50 μM to 1 μM. Total binding was determined in the absence of compound and non-specific binding in the presence of 10 μM cold Angiotensin II. ^125I labeled Sar^1, Ile^8-Angiotensin II was added to all wells at Kd concentration and left for 2 hours at room temperature to equilibrate. Plates were read on a TopCount (Perkin Elmer) and concentration-response curves constructed using commercial curve fitting software. The Ki was determined via interpolation and the use of the Cheng-Prussof equation.

For assay [2], the target named is T2, human PPARγ LBD bound to Gal4 DBD (Homo sapiens, UniProt P37231).
T2 construct: expressed in transfected cells; host or cells: HepG2
T2 sequence (P37231 238-503 limits assumed): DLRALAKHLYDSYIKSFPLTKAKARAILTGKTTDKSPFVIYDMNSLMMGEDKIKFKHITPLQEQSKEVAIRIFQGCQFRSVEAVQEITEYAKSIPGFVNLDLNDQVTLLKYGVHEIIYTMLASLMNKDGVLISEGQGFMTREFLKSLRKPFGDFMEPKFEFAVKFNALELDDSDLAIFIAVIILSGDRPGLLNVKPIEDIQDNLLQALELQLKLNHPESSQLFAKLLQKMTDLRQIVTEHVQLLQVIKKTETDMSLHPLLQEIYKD
The assay is described as follows: PPARγ transfection luciferase reporter assay in HepG2 cells. Format: cell-based. To be noted: for Emax: HepG2, 24 h, compared to full agonist response (standard TZD full agonist), read-out: PPARγ % activation; for EC50: HepG2, 24 hours exposure. The protocol: PPARγ agonist activity may be determined by a cell line transiently transfected with PPARγ bound to a DNA binding domain that controls luciferase expression. The degree of receptor agonism is measured by the amount of luciferase activity after compound treatment. The ratio of treated cells over vehicle control cells provides a measure of fold activation and allows an EC50 (shown in tables I and II as […] EC50) and % activation to be calculated
A human hepatocellular carcinoma cell line (HepG2) was subcultured into dishes and transiently transfected with DNA to allow expression of human PPARγ LBD bound to Gal4 DBD. Luciferase reporter gene and β-galactosidase control genes were co-transfected to enable activity to be measured. After 24 hours, cells were exposed to compounds in the concentration range of 0.1 nM-100 μM and left for a further 24 hours. Luciferase activity is determined by luminometry and PPARγ activation is expressed as a ratio of luciferase activity to β-galactosidase activity to account for transfection efficiency. Potency is described by an EC50 defined as the concentration of compound producing receptor activation equivalent to 50% of the maximum for that compound (shown in Table I as transfection EC50). The maximum fold activation is a measure of efficacy and is expressed as a percentage of a reference full agonist run in the same assay. Efficacy is described by % activation of receptor relative to a standard thiazolidinedione (TZD) full agonist.
On the technique in general: A reporter such as luciferase makes a cellular process visible.

Consider `CCc1nc2c(C)cc(CC[C@@H](O)C(C)C)nc2n1[C@H]1CCc2cc(-c3ccccc3-c3nnn[nH]3)ccc21` [Example 57, (R)-1-(3-((1S)-5-(2-(1H-tetrazol-5-yl)phenyl)-2,3-dihydro-1H-inden-1-yl)-2-ethyl-7-methyl-3H-imidazo[4,5-b]pyridin-5-yl)-4-methyl pentan-3-ol], for which the IC50 in assay [1] came to 0.0025 µM. Further, in assay [2], the Emax came out at 28% and it took 0.285 µM to reach a half-maximal effect (EC50).

On to `CCc1nc2c(C)cc(Cn3cccn3)nc2n1[C@H]1CCc2cc(-c3ccccc3-c3nnn[nH]3)ccc21` [Example 6, 5-((1H-pyrazol-1-yl)methyl)-3-((1S)-5-(2-(1H-tetrazol-5-yl)phenyl)-2,3-dihydro-1H-inden-1-yl)-2-ethyl-7-methyl-3H-imidazo[4,5-b]pyridine], for which, in assay [1], the IC50 was determined as 0.01 µM. In assay [2], the Emax stood at 46% and the EC50 was 0.275 µM.

In the case of `CCc1nc2c(C)cc(Cn3nc(C)cc3C)nc2n1[C@H]1CCc2cc(-c3ccccc3-c3nnn[nH]3)ccc21` [Example 67, 3-((1S)-5-(2-(1H-tetrazol-5-yl)phenyl)-2,3-dihydro-1H-inden-1-yl)-5-((3,5-dimethyl-1H-pyrazol-1-yl)methyl)-2-ethyl-7-methyl-3H-imidazo[4,5-b]pyridine], the concentration for half-maximal inhibition (IC50) in assay [1] amounted to 0.0051 µM. Moreover, in assay [2], the Emax is 23% and a half-maximal response (EC50) required 0.11 µM.

As for `CCc1nc2c(C)cc(CC(O)C(C)C)nc2n1[C@H]1CCc2cc(-c3ccccc3-c3nnn[nH]3)ccc21` (stereo partly drawn) [Example 21, 1-(3-((1S)-5-(2-(1H-tetrazol-5-yl)phenyl)-2,3-dihydro-1H-inden-1-yl)-2-ethyl-7-methyl-3H-imidazo[4,5-b]pyridin-5-yl)-3-methylbutane-2-ol], the IC50 in assay [1] came out at 0.0031 µM. Further, in assay [2], the Emax came out at 23% and a half-maximal response (EC50) required 0.1 µM.

As to `CCc1nnc(Cc2cc(C)c3nc(CC)n([C@H]4CCc5cc(-c6ccccc6-c6nnn[nH]6)ccc54)c3n2)o1` [Example 62, 3-((1S)-5-(2-(1H-tetrazol-5-yl)phenyl)-2,3-dihydro-1H-inden-1-yl)-2-ethyl-5-((5-ethyl-1,3,4-oxadiazol-2-yl)methyl)-7-methyl-3H-imidazo[4,5-b]pyridine], in assay [1], the IC50 is 0.0014 µM. Moreover, in assay [2], the Emax is 50% and a half-maximal response (EC50) required 0.07 µM.

As for `CCc1nc2c(C)cc(CCC3(O)CCCC3)nc2n1[C@H]1CCc2cc(-c3ccccc3-c3nnn[nH]3)ccc21` [Example 42, 1-(2-(3-((1S)-5-(2-(1H-tetrazol-5-yl)phenyl)-2,3-dihydro-1H-inden-1-yl)-2-ethyl-7-methyl-3H-imidazo[4,5-b]pyridin-5-yl)ethyl)cyclopentanol], in assay [1], the IC50 came to 0.0011 µM. Moreover, in assay [2], the Emax was found to be 29% and the EC50 turned out to be 0.155 µM.

As to `CCc1nc2c(C)cc(CCc3ccccn3)nc2n1[C@H]1CCc2cc(-c3ccccc3-c3nnn[nH]3)ccc21` [Example 25, 3-((1S)-5-(2-(1H-tetrazol-5-yl)phenyl)-2,3-dihydro-1H-inden-1-yl)-2-ethyl-7-methyl-5-(2-(pyridin-2-yl)ethyl)-3H-imidazo[4,5-b]pyridine], the IC50 in assay [1] stood at 0.0024 µM. Also, in assay [2], the Emax was 26% and it took 0.18 µM to reach a half-maximal effect (EC50).

As for `CCc1nc2c(C)cc(CC(O)C3CC3)nc2n1[C@H]1CCc2cc(-c3ccccc3-c3nnn[nH]3)ccc21` (stereo partly drawn) [Example 19, 2 (3-((1S)-5-(2-(1H-tetrazol-5-yl)phenyl)-2,3-dihydro-1H-inden-1-yl)-2-ethyl-7-methyl-3H-imidazo[4,5-b]pyridin-5-yl)-1-cyclopropylethanol], the IC50 in assay [1] worked out at 0.0072 µM. Also, in assay [2], the Emax turned out to be 20% and the EC50 came to 0.105 µM.

For `CCc1nc2c(C)cc(CCC3(O)CCOC3)nc2n1[C@H]1CCc2cc(-c3ccccc3-c3nnn[nH]3)ccc21` (stereo partly drawn) [Example 54, 3-(2-(3-((1S)-5-(2-(1H-tetrazol-5-yl)phenyl)-2,3-dihydro-1H-inden-1-yl)-2-ethyl-7-methyl-3H-imidazo[4,5-b]pyridin-5-yl)ethyl)-tetrahydrofuran-3-ol], the IC50 in assay [1] worked out at 0.001 µM. Besides, in assay [2], the Emax amounted to 26% and it took 0.535 µM to reach a half-maximal effect (EC50).

Consider `CCc1nc2c(C)cc(CC[C@@H](C)OC)nc2n1[C@H]1CCc2cc(-c3ccccc3-c3nnn[nH]3)ccc21` [Example 39, 3-((1S)-5-(2-(1H-tetrazol-5-yl)phenyl)-2,3-dihydro-1H-inden-1-yl)-2-ethyl-5-((R)-3-methoxybutyl)-7-methyl-3H-imidazo[4,5-b]pyridine], for which, in assay [1], the IC50 was determined as 0.0011 µM. Further, in assay [2], the Emax was determined as 24% and the EC50 amounted to 0.135 µM.

With `CCc1nc2c(C)cc(CCC(C)(O)CC(C)C)nc2n1[C@H]1CCc2cc(-c3ccccc3-c3nnn[nH]3)ccc21` (stereo partly drawn) [Example 69, 1-(3-((1S)-5-(2-(1H-tetrazol-5-yl)phenyl)-2,3-dihydro-1H-inden-1-yl)-2-ethyl-7-methyl-3H-imidazo[4,5-b]pyridin-5-yl)-3,5-dimethylhexan-3-ol], the half-inhibitory concentration (IC50) in assay [1] was found to be 0.004 µM. For the same compound, in assay [2], the Emax is 36% and the EC50 was 0.03 µM.

For the compound `CCc1nc2c(C)cc(CCCc3cccnc3)nc2n1[C@H]1CCc2cc(-c3ccccc3-c3nnn[nH]3)ccc21` [Example 32, 3-((1S)-5-(2-(1H-tetrazol-5-yl)phenyl)-2,3-dihydro-1H-inden-1-yl)-2-ethyl-7-methyl-5-(3-(pyridin-3-yl)propyl)-3H-imidazo[4,5-b]pyridine], in assay [1], the IC50 worked out at 0.0021 µM. In assay [2], the Emax amounted to 20% and it took 0.51 µM to reach a half-maximal effect (EC50).

`CCc1nc2c(C)cc(CC[C@H](C)O)nc2n1[C@H]1CCc2cc(-c3ccccc3-c3nnn[nH]3)ccc21` [Example 36, (S)-4-(3-((1S)-5-(2-(1H-tetrazol-5-yl)phenyl)-2,3-dihydro-1H-inden-1-yl)-2-ethyl-7-methyl-3H-imidazo[4,5-b]pyridin-5-yl)butan-2-ol]: in assay [1], the IC50 amounted to 0.0012 µM. Besides, in assay [2], the Emax was determined as 30% and the EC50 came out at 0.215 µM.

With `CCc1nc2c(C)cc(CC3CCCCC3O)nc2n1[C@H]1CCc2cc(-c3ccccc3-c3nnn[nH]3)ccc21` (single isomer, unassigned) [Example 64], the IC50 in assay [1] worked out at 0.0019 µM. Further, in assay [2], the Emax turned out to be 21% and the 50% effective concentration (EC50) was determined as 0.095 µM.

In the case of `CCCc1nc2c(C)cc(CCC(C)(C)O)nc2n1[C@H]1CCc2cc(-c3ccccc3-c3nnn[nH]3)ccc21` [Example 35, 4-(3-((1S)-5-(2-(1H-tetrazol-5-yl)phenyl)-2,3-dihydro-1H-inden-1-yl)-7-methyl-2-propyl-3H-imidazo[4,5-b]pyridin-5-yl)-2-methylbutan-2-ol], the IC50 in assay [1] was 0.0005 µM. For the same compound, in assay [2], the Emax came to 23% and the response was half-maximal at 0.39 µM (EC50).

In the case of `CCc1nc2c(C)cc(CCC(O)(CC)CC)nc2n1[C@H]1CCc2cc(-c3ccccc3-c3nnn[nH]3)ccc21` [Example 56, 1-(3-((1S)-5-(2-(1H-tetrazol-5-yl)phenyl)-2,3-dihydro-1H-inden-1-yl)-2-ethyl-7-methyl-3H-imidazo[4,5-b]pyridin-5-yl)-3-ethylpentane-3-ol], the IC50 in assay [1] was determined as 0.0025 µM. In assay [2], the Emax came out at 31% and the EC50 turned out to be 0.11 µM.

For `CCc1nc2c(C)cc(CCC(O)CC)nc2n1[C@H]1CCc2cc(-c3ccccc3-c3nnn[nH]3)ccc21` (stereo partly drawn) [Example 44, 1-(3-((1S)-5-(2-(1H-tetrazol-5-yl)phenyl)-2,3-dihydro-1H-inden-1-yl)-2-ethyl-7-methyl-3H-imidazo[4,5-b]pyridin-5-yl)pentan-3-ol], in assay [1], the IC50 was found to be 0.0011 µM. For the same compound, in assay [2], the Emax is 38% and the EC50 stood at 0.475 µM.
